“And” between values parts separate entries of the source, which are not always exact repeats. Identical values can stand only once. “Also recorded” adds a separate entry of the source.
Assays:
Striga hermonthica seeds [1] = assay: Germination bioassay: S. hermonthica seeds with root exudates of treated host seedlings (maize, cowpea, sorghum); type: in vivo; settings: for maize root exudate-induced S. hermonthica germination: maize W22 grown 5 days with 100 μM fosmidomycin or 10 μM mevastatin, control 42±2%
[2] = system: carotenoid composition of shoots and roots of maize seedlings; assay: Carotenoid analysis (HPLC) of shoots and roots of treated maize seedlings; type: in vivo
maize seedlings = assay: Phenotype of inhibitor-treated maize seedlings; settings: 10 μM mevastatin, 100 μM fosmidomycin, 25 μM fluridone, 200 μM amitrole (21° C.), 0.1-1 mM naproxen, 1 mM sodium tungstate, 0.02-0.2 mM abscisic acid
Orobanche crenata seeds = type: in vivo; settings: 10 μM fluridone, versus control, FIG. 3F
Striga hermonthica seeds [3] = type: in vivo
[4] = Roots of 10-day old maize seedlings, 10 μM fluridone, 1 mM naproxen, 0.1 mM sodium tungstate, 0.02 mM abscisic acid, n.d. = below detection limit
[5] = Shoots of 10-day old maize seedlings, 10 μM fluridone, 1 mM naproxen, 0.1 mM sodium tungstate, 0.02 mM abscisic acid, n.d. = below detection limit
[6] = maize shoots, versus control (Table 1)

CC1=CC(=O)CC(C)(C)C1(O)/C=C/C(C)=C\C(=O)O (racemic) [abscisic acid, (±)-abscisic acid]
germination of S. hermonthica induced by root exudates of treated maize (Striga hermonthica seeds [1]; 0.02 or 0.2 mM abscisic acid, without/with 10 μM fluridone, FIG. 3D): very low germination; also recorded: strongly reduced
violaxanthin, carotenoid content [2, 4]: 0.07 μg · g^−1 fwt
β-carotene, carotenoid content [2, 4]: 0.01 μg · g^−1 fwt
lutein, carotenoid content [2, 5]: 73.01 μg · g^−1 fwt
neoxanthin, carotenoid content [2, 5]: 115.29 μg · g^−1 fwt
violaxanthin, carotenoid content [2, 5]: 50.84 μg · g^−1 fwt
β-carotene, carotenoid content [2, 5]: 47.35 μg · g^−1 fwt
β-carotene concentration lower than in control roots ([2]; abscisic acid treated maize roots (0.02 mM, Table 1)): 50% and ~65%
carotenoid accumulation in shoots (β-carotene, violaxanthin, neoxanthin, lutein) [2, 6]: decreased accumulation
morphology / appearance of treated seedlings (maize seedlings): slightly thicker and more brittle

CC1=C[C@H](O/C=C2/C(=O)O[C@@H]3c4ccccc4C[C@H]23)OC1=O [GR24]
germination of S. hermonthica induced by GR24 alone (Striga hermonthica seeds [1]; suboptimal concentration of GR24 (0.01 mg.L^−1, FIG. 3E)): 48±1%

Nc1nc[nH]n1 [amitrole, 3-amino-1,2,4-triazole]
germination of S. hermonthica induced by root exudates of treated maize (Striga hermonthica seeds [1]; maize Dent, 200 μM amitrole, grown at 21° C., versus control, FIG. 3C): lower germination
morphology / appearance of treated seedlings (maize seedlings): yellow-green phenotype

O=CN(O)CCCP(=O)(O)O [fosmidomycin]
maize root exudate-induced S. hermonthica germination (Striga hermonthica seeds [1]; FIG. 3A): 37±2%
morphology / appearance of treated seedlings (maize seedlings): slightly pale-yellow leaves

CC[C@H](C)C(=O)O[C@H]1CCC=C2C=C[C@H](C)[C@H](CC[C@@H]3C[C@@H](O)CC(=O)O3)[C@H]21 [mevastatin]
maize root exudate-induced S. hermonthica germination (Striga hermonthica seeds [1]; FIG. 3A): 33±3%

COc1ccc2cc([C@H](C)C(=O)[O-])ccc2c1.[Na+] [naproxen, (S)-6-methoxy-α-methyl-2-naphthaleneacetic acid sodium salt]
germination of S. hermonthica seeds (Striga hermonthica seeds [1]; in vivo, sodium salt): 20±1% and 15±2%
carotenoid accumulation in shoots (β-carotene, violaxanthin, neoxanthin, lutein) ([2]; in vivo): decreased accumulation
concentration of violaxanthin higher than in control roots ([2]; in vivo): about 3 fold
concentration of β-carotene higher than in control roots ([2]; in vivo): 2 fold
lutein, carotenoid content ([2]; in vivo): 68.58 μg · g^−1 fwt
neoxanthin, carotenoid content ([2]; in vivo): 111.81 μg · g^−1 fwt

[Na+].[Na+].[O]=[W](=[O])([O-])[O-] [sodium tungstate]
effect on root exudate induced S. hermonthica germination (Striga hermonthica seeds [1]; maize Dent, 0.1 mM and 1 mM sodium tungstate, FIG. 3D): did not affect germination; also recorded: did not have an effect
violaxanthin, carotenoid content [2, 4]: 0.22 μg · g^−1 fwt
β-carotene, carotenoid content [2, 4]: 0.03 μg · g^−1 fwt
lutein, carotenoid content [2, 5]: 83.94 μg · g^−1 fwt
neoxanthin, carotenoid content [2, 5]: 147.58 μg · g^−1 fwt
violaxanthin, carotenoid content [2, 5]: 72.19 μg · g^−1 fwt
β-carotene, carotenoid content [2, 5]: 64.29 μg · g^−1 fwt
concentration of violaxanthin higher than in control roots ([2]; maize roots, 1 mM naproxen, 0.1 mM sodium tungstate (Table 1)): 2 fold
carotenoid accumulation in shoots (β-carotene, violaxanthin, neoxanthin, lutein) [2, 6]: did not affect carotenoid accumulation

fluridone
germination of O. crenata seeds with fluridone-treated cowpea root exudate (Orobanche crenata seeds): lower than that induced by the control; also recorded: decreased this germination by about the same percentage as for S. hermonthica
effect on the attachment phase of Striga (Striga hermonthica seeds [3]; control experiments with GR24 inducing full germination (data not shown)): not affecting the attachment phase
number of germinated/attached seeds/tubercles of Striga (Striga hermonthica seeds [3]; rice, fluridone sprayed to the leaves on 3 consecutive days, even at 0.001 and 0.01 μM, FIG. 7B): strong, significant reduction
number of germinated/attached Striga seeds (Striga hermonthica seeds [3]; rice, irrigation once with 100 mL of 0.1 μM fluridone, scored after 6 weeks, FIG. 7A): significantly reduced
germination of S. hermonthica induced by root exudates of treated maize (Striga hermonthica seeds [1]; 10 μM fluridone, dim light, FIG. 3B): negligible
germination of S. hermonthica induced by root exudates of treated maize (Striga hermonthica seeds [1]; 10 μM fluridone, normal light, control 13±1%, FIG. 3B): virtually no germination
germination of S. hermonthica induced by fluridone-treated cowpea root exudates with GR24 (Striga hermonthica seeds [1]; 10 μM fluridone-treated cowpea exudate plus 0.01 mg.L^−1 GR24, FIG. 3E): 53±3%
germination of S. hermonthica seeds induced by cowpea root exudates (Striga hermonthica seeds [1]; cowpea watered with 10 μM fluridone for 5 days, non-treated 49±2%, FIG. 3E): 11±3%
germination induced by root exudates lower than for control maize (Striga hermonthica seeds [1]; maize W22, 25 μM fluridone, 5 days, FIG. 3A): about 80%
sorghum root exudate induced S. hermonthica germination (Striga hermonthica seeds [1]; sorghum, 4 μM fluridone, FIG. 3G): completely blocked
phytoene in treated roots ([2]; fluridone treated maize roots): phytoene accumulated
phytoene in treated shoots ([2]; shoot of fluridone treated maize plants): phytoene accumulated

Source: patent US20090178158A1, “RESISTANCE AGAINST PARASITIC WEEDS” (Plant Research International B.V., priority 2005, published 2009)
